# System: cutaneous MCT or subcutaneous MCT
# Assay: Example 1: RECIST v.1.1 tumor response after a single intratumoral Compound 1 injection (0.4 mL/cm^3 of tumor) with prophylactic and supportive medications
# Assay type: in vivo, Canis lupus familiaris (dog)
# Excerpt: Study dogs were managed similarly and with due regard for their welfare. Animals were enrolled in the study in accordance with instructions provided in Australian Pesticides and Veterinary Medicines Authority (APVMA) small-scale trials permit PER7250 (unregistered drug use). All animals were client-owned, treated by Australian registered veterinarians, and cases managed under their direct supervision. An enrolled dog could be removed from the study prior to study completion under the following circumstances: • 1. If at any time during the study, in the opinion of the attending veterinarian, the dog's welfare is at risk due to non-response of the tumor to Compound 1 treatment or due to a serious adverse event, the veterinarian could elect to withdraw the dog from the study. Following withdrawal, the dog's attending veterinarian could then administer supportive treatment and veterinary care that they deem is appropriate and in the best interest of the animal. • 2. The owner elected to voluntarily withdraw the dog from the study.
# Dogs were selected for the study if they met the criteria in Table 1 below.
# Compound 1 was prepared for intratumoral injection by preparation of a composition comprising 1 mg/mL Compound 1 in a 40% propylene glycol solution with 30 mM acetate buffer, pH 4.2. The dosage level was 0.4 mL/cm^3 of tumor.
# The drug was administered to each dog as 0.4 mL per cm^3 of tumor volume (40% v/v tumor) as determined on the day of dosing (Day 0). Tumor volume was determined using the modified ellipsoidal calculation=½×length×width×depth (cm) (Monga et al, 2000; Celikoglu et al, 2008).
# Wherever possible, the tumor and a 2 cm border surrounding the tumor was shaved prior to treatment. To deliver the drug, the needle of the dosing syringe was inserted into the tumor at the injection point and moved in a radial manner in 2- and 3-dimensions. Treatment administration was recorded on the individual “Case Report Form”. Study dogs were clinically examined at 2-4 and 24 hours, and 7 (±2), 14 (±2) and 28 (±2) days post-treatment (and unscheduled visits at attending veterinarian discretion).
# Each supervising veterinarian was given latitude to provide and record prophylactic and supportive medications as deemed appropriate for managing potential paraneoplastic events and tumor site necrosis following treatment with Compound 1. […]
# Determination of efficacy was based on objective tumor measurements made according to the Response Evaluation Criteria in Solid Tumors (RECIST) v.1.1 guideline (Eisenhauer et al, 2009) using the longest unidirectional tumor measurement (diameter). […] Measurements were recorded using digital calipers at pre-treatment and at 7(±2), 14(±2) and 28(±2) days post treatment. […]
smiles,measurement,setting,value
"C/C=C(\C)C(=O)O[C@@H]1[C@@H](C)[C@@]2(O)[C@H]([C@@H]3C(C)(C)[C@]13OC(=O)[C@@H](C)CC)[C@@H]1O[C@]1(CO)[C@@H](O)[C@]1(O)C(=O)C(C)=C[C@H]12 [Compound 1, 12-tigloyl-13-(2-methylbutanoyl)-6,7-epoxy-4,5,9,12,13,20-hexahydroxy-1-tigliaen-3-one]",Number of dogs with partial response (PR),"Day 28, 11 dogs available of 12 treated",3
same,Number of dogs with complete response (CR),"Day 28, 11 dogs available of 12 treated, 1.0 mg/mL, 0.4 mL/cm^3",6
same,Tumor cytology in the autopsied injection site,"dog C03-T-07, Day 4, personal correspondence with attending veterinarian",no tumor cytology was identified
same,RECIST classification,"one value per dog, Day 28, single intratumoral dose, 1.0 mg/mL, 0.4 mL/cm^3 tumor","PR (partial response (PR, at least 30% decrease in the longest diameter of target lesion))"

# From patent US20190160035A1, “METHOD OF TREATMENT” (QBIOTICS LIMITED, priority 2016, published 2019)
